# From ChEMBL document CHEMBL1121760, “Methotrexate analogues. 14. Synthesis of new gamma-substituted derivatives as dihydrofolate reductase inhibitors and potential anticancer agents” (1981)
# Columns and labels:
# L1210 = assay: Growth inhibitory activity against L1210 mouse leukemia cell line; format: functional; conditions: read-out: ID50 (the source's name)
# [1] = molecular target: Dihydrofolate reductase (Lactobacillus casei) (UniProt P00381); conditions: Lacticaseibacillus casei
# Description: Compound was tested for inhibition of Lactobacillus casei dihydrofolate reductase using spectrophotometric assay at 340 nm
# [2] = molecular target: T1, Dihydrofolate reductase (Mus musculus) (UniProt P00375); conditions: L1210
# T1 sequence (whole entry): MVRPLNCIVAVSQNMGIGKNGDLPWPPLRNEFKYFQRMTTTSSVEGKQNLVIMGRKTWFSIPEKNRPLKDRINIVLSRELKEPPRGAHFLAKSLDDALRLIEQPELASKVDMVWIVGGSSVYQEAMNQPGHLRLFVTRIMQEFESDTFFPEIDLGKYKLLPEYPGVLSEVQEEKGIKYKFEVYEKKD
# Description: Compound was tested for inhibition of L1210 dihydrofolate reductase by competitive [3H]MTX binding assay in L1210 mouse leukemia cell lines
# [3] = molecular target: Dihydrofolate reductase (Lactobacillus casei) (UniProt P00381); conditions: Lacticaseibacillus casei; remark: listed apart in the source
# Description: Compound was tested for inhibition of Lactobacillus casei dihydrofolate reductase using competitive [3H]MTX binding assay
# Dihydrofolate reductase (Lactobacillus casei), sequence (P00381 whole entry): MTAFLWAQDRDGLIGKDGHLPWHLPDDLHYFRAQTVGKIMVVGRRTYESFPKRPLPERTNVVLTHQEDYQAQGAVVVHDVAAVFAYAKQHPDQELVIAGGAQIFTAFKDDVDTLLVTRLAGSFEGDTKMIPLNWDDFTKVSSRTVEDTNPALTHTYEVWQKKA
SMILES,IC50 (L1210) [nM],ID50 [1] [nM],ID50 [2] [nM],ID50 [3] [nM]
CN(Cc1cnc2nc(N)nc(N)c2n1)c1ccc(C(=O)N[C@@H](CCC(=O)O)C(=O)O)cc1 [METHOTREXATE],10,–,–,–
CN(Cc1cnc2nc(N)nc(N)c2n1)c1ccc(C(=O)NC(CCC(=O)NN)C(=O)O)cc1 (stereo not given),20,2.1,12,13
CCCCNC(=O)CCC(NC(=O)c1ccc(N(C)Cc2cnc3nc(N)nc(N)c3n2)cc1)C(=O)OCc1ccccc1 (stereo not given),–,–,–,250
CN(Cc1cnc2nc(N)nc(N)c2n1)c1ccc(C(=O)NC(CCC(=O)OC(C)(C)C)C(=O)O)cc1 (stereo not given),20,25,2.9,12
CCCCNC(=O)CCC(NC(=O)c1ccc(N(C)Cc2cnc3nc(N)nc(N)c3n2)cc1)C(=O)O (stereo not given),90,53,3.3,36
CN(Cc1cnc2nc(N)nc(N)c2n1)c1ccc(C(=O)NC(CCC(=O)O)C(=O)OC(C)(C)C)cc1 (stereo not given),5200,36,35,210

# The remaining molecules from weak to strong by IC50 (L1210), led by results:
IC50 (L1210) [nM],ID50 [1] [nM],ID50 [2] [nM],ID50 [3] [nM],SMILES
11000,170,–,2200,CN(Cc1cnc2nc(N)nc(N)c2n1)c1ccc(C(=O)NC(CCC(=O)NN)C(=O)OC(C)(C)C)cc1 (stereo not given)
9700,200,19,2200,COC(=O)CCC(NC(=O)c1ccc(N(C)Cc2cnc3nc(N)nc(N)c3n2)cc1)C(=O)OC(C)(C)C (stereo not given)
4900,330,11,3900,COC(=O)C(CCC(=O)OC(C)(C)C)NC(=O)c1ccc(N(C)Cc2cnc3nc(N)nc(N)c3n2)cc1 (stereo not given)
30,–,–,–,CN(Cc1cnc2nc(N)nc(N)c2n1)c1ccc(C(=O)NC(CCC(=O)NCc2ccccc2)C(=O)O)cc1 (stereo not given)
